From article PMC5462828 (Scientific Reports, 2017)

System: MMP-2
Assay: Gelatin zymography of MMP-2 in human cardiac fibroblasts
Format: cell-based
Conditions: HCFs; 72 hours; ML290 1 μM, H2 relaxin 0.1 μM
Method: Changes in matrix metalloproteinases-2 (MMP-2; gelatinase A) activity that were secreted from HCFs into the cell media over a 72 hour experimental period, were assessed by gelatin zymography as described previously, [45]. […] Cells were used between passages 1–4, while all experiments were performed four separate times in duplicate. The optical density (OD) of MMP-2 was measured using a GS710 Calibrated Imaging Densitomer (Bio-Rad Laboratories, Hercules, CA, USA), and the mean ± SE OD of MMP-2 in each treated group was expressed as the relative ratio of the values in the untreated control group.

Compound: CC(C)Oc1ccccc1C(=O)Nc1ccccc1C(=O)Nc1cccc(S(=O)(=O)C(F)(F)F)c1 [ML290, 2-Isopropoxy-N-(2-(3-(trifluoromethylsulfonyl)phenylcarbamoyl)phenyl) benzamide]
- increase of MMP-2 expression versus untreated controls: ~40%
